We go through four compounds from publication PMC8949187, “Study of Structure–Activity Relationships of the Marine Alkaloid Fascaplysin and Its Derivatives as Potent Anticancer Agents” (Marine Drugs, 2022).

Molecules are shown by their SMILES.

Experiment [1] concerns non-cancer cell lines versus cancer cell lines. The experiment in a line: Selectivity index from MTT IC50s. It is filed as cell-based, human. As to conditions: for Selectivity index, IC50 (non-prostate) / IC50 (prostate): mean IC50 MRC-9 and HEK-293 versus mean IC50 prostate cancer cell lines plus PNT2; for Selectivity index, IC50 (non-prostate) / IC50 (prostate) / Selectivity index, IC50 (non-cancer) / IC50 (cancer): MTT; for Selectivity index, IC50 (non-cancer) / IC50 (cancer): mean IC50 non-cancer cell lines versus mean IC50 cancer cell lines.

Another experiment has as its system tumor growth. The arrangement: method as in PMID 28961193, PMID 25561006. The settings on record: various in vivo models; cited from earlier work.
Experiment [2] concerns prostate cancer cell lines (PC-3, 22Rv1, DU145 and LNCaP). The experiment in a line: MTT assay, mean over four prostate cancer cell lines. As to conditions: Homo sapiens; mean of MTT IC50 in PC-3, 22Rv1, DU145 and LNCaP; from Table S1 values; read-out: mean IC50 in cancer cells. The class given is cell-based. The method in brief: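 Cells were treated for 48 h in 10% FBS/RPMI, then MTT was added for 2-4 h, dissolved in DMSO and read. IC50 was set against solvent-treated controls and averaged across PC-3, 22Rv1, DU145 and LNCaP. Selectivity index was mean non-cancer IC50 over mean cancer IC50.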

The next experiment deals with VEGFR2. The arrangement: method as in PMID 28961193. As to conditions: cited from earlier work.
Experiment [3] deals with 22Rv1 cells. Kind of experiment: Trypan blue-based viability assay. It is filed as cell-based, human. The settings on record: Homo sapiens, 48 h of treatment, mean ± SD, read-out: IC50, trypan blue staining assay. The method in brief: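 Cells were seeded at 0.2 × 10^6 per well, left overnight, then treated with drugs at the chosen concentrations for 48 h. After trypsinisation and trypan blue staining, automated counting scored unstained cells as viable and stained cells as dead.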

Experiment [4] deals with 22Rv1 cells. Kind of experiment: DNA fragmentation (apoptosis, sub-G1), flow cytometry with PI staining. The class given is cell-based, human. As to conditions: treated at IC50 (MTT assay) for 48 h, mean ± SD. The procedure, abridged:
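After overnight pre-incubation, cells were exposed to compounds for 48 h, then trypsinised, fixed in 70% EtOH and PI-stained for flow cytometry. Cell-cycle phase distribution was quantified, and the sub-G1 population with fragmented DNA was scored as apoptotic.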
On the technique in general: A flow cytometer gives signals particle by particle.

In experiment [5] the test system is 22Rv1 cells. The experiment in a line: Cell cycle progression, flow cytometry with PI staining. It is filed as cell-based, human. The settings on record: treated at IC50 (MTT assay) for 48 h. How it is done: The effects on cell cycle progression and DNA fragmentation were analyzed by flow cytometry using PI staining, as described before. Cells (2 × 10^5 cells/well) were pre-incubated overnight in 6-well plates and then treated with the investigated drugs in fresh culture media (2 mL/well) for 48 h. Cells were harvested by trypsinization, fixed in 70% EtOH, stained with PI solution and analyzed by FACS Calibur (BD Bioscience, San Jose, CA, USA). The results were quantified using BD Bioscience Cell Quest Pro v.5.2.1. software (BD Bioscience). The cells appearing as a sub-G1 population (containing fragmented DNA) were considered to be apoptotic.

Another experiment has as its system VEGFR3. The arrangement: method as in PMID 28961193. As to conditions: cited from earlier work.
The next experiment relates to TRKA. The arrangement: method as in PMID 28961193. As to conditions: cited from earlier work.
In the next experiment the test system is MRC-9 cells. Kind of experiment: MTT assay, MRC-9 cells. The class given is cell-based, human. As to conditions: Homo sapiens, MRC9; non-cancer cells; 48 h of treatment; mean ± SD. The procedure, abridged: (§1)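 MTT viability read-out after 48 h compound exposure in 10% FBS/RPMI; cells plated 6 × 10^3/well overnight beforehand. IC50 calculated against solvent-only wells.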
In general terms: Tetrazolium assays rely on reduction of a dye to a coloured formazan, in cell work by metabolically active cells.

In experiment [6] the test system is double-stranded calf thymus DNA. The experiment in a line: Thiazole orange displacement (DNA intercalation) assay. As to conditions: 1 µM calf thymus DNA base pairs, 2 µM thiazole orange; 7 min at room temperature; mean ± SD. It is filed as binding. How it is done: DNA intercalation activity of the compounds was calculated as an ability to displace thiazole orange (TO) from the double-stranded DNA. For this experiment, a mixture (100 µL) containing 1 µM of double-stranded calf thymus DNA (recalculated as a concentration of base pairs) and 2 µM of thiazole orange (TO) solved in water was prepared. Then, the investigated compounds were added up to final concentrations of 0.39–25 µM; DMSO concentration in the samples was <0.02%. Propidium iodide (PI, positive control) was added up to final concentrations of 0.039–2.5 uM. After 7 min of incubation at room temperature, TO fluorescence was monitored using a multimodal plate reader TECAN Spark (Tecan Group Ltd., Männedorf Switzerland) at the excitation λ = 480 nm; fluorescence was recorded at λ = 530 nm. The bandwidth was 10 nm. The concentration of the drug that caused a decrease in TO fluorescence by 50% (EC50) was determined by approximating the experimental data using a non-linear regression algorithm and calculated using the GraphPad Prism software v.9.1.1 (GraphPad Software, San Diego, CA, USA).

For another experiment, the system named is DU145 cells. Kind of experiment: MTT assay, DU145 cells. It is filed as cell-based, human. The settings on record: Homo sapiens, DU-145; prostate cancer cells; 48 h of treatment; mean ± SD. The method in brief: as §1
For the next experiment, the system named is LNCaP cells. Kind of experiment: MTT assay, LNCaP cells. It is filed as cell-based, human. As to conditions: Homo sapiens, LNCaP; prostate cancer cells; 48 h of treatment; mean ± SD. The procedure, abridged: as §1
In another experiment the test system is HEK-293 cells. Kind of experiment: MTT assay, HEK-293 cells. It is filed as cell-based, human. As to conditions: Homo sapiens, HEK293; non-cancer cells; 48 h of treatment; mean ± SD. The method in brief:
as §1

The subject of another experiment is PNT2 cells. The experiment in a line: MTT assay, PNT2 cells. It is filed as cell-based, human. As to conditions: Homo sapiens, PNT2; non-cancer cells; 48 h of treatment; mean ± SD. The method in brief:
as §1

Experiment [7] deals with 22Rv1 cells. Kind of experiment: MTT assay, 22Rv1 cells. The settings on record: Homo sapiens, 22Rv1; prostate cancer cells; 48 h of treatment; mean ± SD. The class given is cell-based, human. The method in brief: as §1
For the next experiment, the system named is PC-3 cells. Kind of experiment: MTT assay, PC-3 cells. As to conditions: Homo sapiens, PC-3; prostate cancer cells; 48 h of treatment; mean ± SD. The class given is cell-based, human. The method in brief: as §1

In general, IC50 refers to the concentration at which inhibition is half-maximal. As usually defined, the EC50 is the concentration giving half of the maximal effect. A lower EC50 goes with greater potency. Regarding `O=C1c2ccccc2-[n+]2ccc3c([nH]c4ccccc43)c21` [Compound 1, fascaplysin], in [1], the “Selectivity index, IC50 (non-prostate) / IC50 (prostate)” value was 1.26. For the same compound, the “Selectivity index, IC50 (non-cancer) / IC50 (cancer)” value in [1] is 1.09. In addition, the “dose at which tumor growth is inhibited” value in the experiment with tumor growth was 1 to 5 mg/kg. Further, the IC50 in experiment [2] came to 550 nM; with 22Rv1 cells [3], 335 ± 93 nM; in the experiment with MRC-9 cells, 890 ± 46 nM. For the same compound, in the experiment on VEGFR2, the “concentration inhibiting VEGFR2” value is given as “lower than 3 µM”. In the experiment on 22Rv1 cells [4], the “% of sub-G1 apoptotic cells (at IC50)” value worked out at 11.43±0.843%. Moreover, in the experiment on 22Rv1 cells [5], the “Cell cycle arrest (at IC50)” value is recorded as “G1-phase arrest”. Also, in the experiment with VEGFR3, the “concentration inhibiting VEGFR3” value was “lower than 3 µM”. The “concentration inhibiting TRKA” value in the experiment with TRKA is on record as “lower than 3 µM”. The same compound displayed an EC50 in [6] of 530 ± 10 nM.
Consider `O=C1c2ccccc2-[n+]2ccc3c([nH]c4ccc(Br)cc43)c21.[Cl-]` [Compound 6, 12,13-dihydro-9-bromo-13-oxopyrido[1,2-a:3,4-b’]diindol-5-ium chloride], for which the IC50 in the experiment with DU145 cells was 2240 ± 180 nM; in the experiment on LNCaP cells, 1410 ± 89 nM; in [2], 1880 nM; with 22Rv1 cells [3], 2790 ± 223 nM; in the experiment with HEK-293 cells, 2540 ± 1140 nM; in the experiment with PNT2 cells, 2450 ± 950 nM. For the same compound, the IC50 in the experiment with MRC-9 cells amounted to 15500 ± 2500 nM; with 22Rv1 cells [7], 1070 ± 94 nM; in the experiment on PC-3 cells, 2780 ± 370 nM. In addition, in experiment [1], the “Selectivity index, IC50 (non-prostate) / IC50 (prostate)” value amounted to 4.54. For the same compound, the “Selectivity index, IC50 (non-cancer) / IC50 (cancer)” value in [1] worked out at 3.65. Moreover, the “% of sub-G1 apoptotic cells (at IC50)” value with 22Rv1 cells [4] is listed as 32.38±1%. The “Cell cycle arrest (at IC50)” value in the experiment on 22Rv1 cells [5] is “No”. The compound further registered an EC50 in experiment [6] above 25000 nM.
On to `O=C1c2ccc(Br)cc2-[n+]2ccc3c([nH]c4cc(Br)ccc43)c21` [Compound 8, 3,10-dibromofascaplysin], for which the IC50 in the experiment on DU145 cells came to 1510 ± 56 nM; in the experiment with LNCaP cells it was 593 ± 91 nM; in experiment [2] it was 2520 nM; in the experiment on 22Rv1 cells [3], 5140 ± 220 nM; in the experiment with HEK-293 cells it was 540 ± 48 nM; with PNT2 cells, 3490 ± 1010 nM. For the same compound, the IC50 in the experiment on MRC-9 cells was above 50000 nM; in the experiment with 22Rv1 cells [7], 690 ± 19 nM; with PC-3 cells it was 7280 ± 480 nM. The “Selectivity index (SI), for Figure 2B,C” value in [1] (both SI definitions (Figure 2B,C)) was 7–9. In addition, the “% of sub-G1 apoptotic cells (at IC50)” value in the experiment on 22Rv1 cells [4] is given as 3.83±0.442%. The “Cell cycle arrest (at IC50)” value in the experiment on 22Rv1 cells [5] is on record as “No”. The compound further registered an EC50 in experiment [6] of 4380 ± 60 nM.
In the case of `O=C1c2ccc(Br)cc2-[n+]2ccc3c([nH]c4cccc(Br)c43)c21.[Cl-]` [Compound 9, 12,13-dihydro-3,8-dibromo-13-oxopyrido[1,2-a:3,4-b’]diindol-5-ium chloride], the IC50 in the experiment on DU145 cells worked out at 334 ± 34 nM; with LNCaP cells, 361 ± 85 nM; in experiment [2], 570 nM; with 22Rv1 cells [3] it was 259 ± 94 nM; in the experiment with HEK-293 cells, 580 ± 99 nM; in the experiment with PNT2 cells, 369 ± 24 nM. In addition, the IC50 with MRC-9 cells amounted to 2070 ± 470 nM; in the experiment with 22Rv1 cells [7], 209 ± 72 nM; with PC-3 cells it was 1390 ± 700 nM. Also, the “Selectivity index, IC50 (non-prostate) / IC50 (prostate)” value in experiment [1] is recorded as 2.48. Further, in experiment [1], the “Selectivity index, IC50 (non-cancer) / IC50 (cancer)” value is 1.75. Further, in the experiment with 22Rv1 cells [4], the “% of sub-G1 apoptotic cells (at IC50)” value amounted to 28.7±3.49%. Also, in the experiment on 22Rv1 cells [5], the “Cell cycle arrest (at IC50)” value was “No”. The compound also gave an EC50 in [6] of 690 ± 20 nM.
